Measured values from patent US20230151309A1, “PLANT-BASED HYDROALCOHOLIC FORMULATIONS FOR IMPROVING LIVER HEALTH” (priority 2021, published 2023).
Entries after “also recorded” stand apart in the source; their conditions may differ.

Experiments:
[1] = EGCG level in the botanical-infused alcoholic composition by LC-MS/MS (EGCG stability); type: physicochemical; settings: final alcoholic composition, pH below 4.65
Procedure: Intracellular ATP was expressed as % ATP vs. Vehicle Control. Data points represent mean±SEM of N=3 replicates.
The samples were tested by LC-MS/MS using a Waters Acquity UPLC system in-line with a Waters Xevo TO-S mass spectrometer via an electrospray interface. An EGCG powdered standard was purchased from Sigma-Aldrich. The EGCG standard was prepared as a 1 mg/mL solution in PBS containing 0.2% ascorbic acid and 0.005% EDTA to calculate the standard curve. EGCG was spiked into intestinal media at a 5% ratio of standard to media (% v/v). EGCG internal standard (IS) was prepared as a 200 ng/ml solution also using PBS containing 0.2% ascorbic acid and 0.005% EDTA. Ten μL of EGCG IS was added to 25 μL of EGCG standard, vortex mixed, and 2× extracted with 350 μL of ethyl acetate. […]
EGCG and samples of the alcoholic beverage composition were separated using a 1.0 mm×100 mm Waters HSS T3 column with 0.3% acetic acid/HO as mobile phase A and 0.3% acetic acid/acetonitrile as mobile. phase B. For gradient elution, initial B was 1%, increased to 95% Bat 2 minutes, 95% Bat 4 minutes, and back to 1% Bat 4.5 minutes. […] Data was analyzed using Waters Targetlynx application software and automatically exported as a CSV file for reporting.
EGCG was detected in the final alcoholic composition. […]

intestinal tissue = assay: Intestinal tissue viability by MTT assay (HuDMOP); type: cell-based, human; settings: 100 μL, 24 hr, % viable vs. vehicle control
Procedure: (§1) The model consisted of human 3D epidermal model (Epiltestinal tissue from MarTek) linked to HepG2 cells (Liver) linked by unidirectional simulated blood flow. Simulated blood consisted of saline with human serum albumin.
Diluted ethanol (EtOH) alone or a composition of the present invention diluted to the same level as the EtOH alone test are applied to the apical side of the intestine chamber at the start of the experiment. […] The health of the intestinal tissue was measured with a MTT assay. Pure EGCG was also applied as a control. Tissues were dosed with 100 μL of the solutions and were incubated at 37° C. with 5% CO2 for 24 hr. Cell viability was expressed at % viable vs. vehicle control. Data points represent mean±SEM of N=2 replicates.

[2] = EGCG kinetics in two-compartment HuDMOP (intestine to liver to perfusate), LC-MS/MS; type: in vitro ADME, human
Excerpt: The human dynamic multiple organ plate (HuDMOP) developed by IONTOX (U.S. Pat. No. 9,631,167 B2) was used for testing. This plate is an accepted and unique state-of-the-art in vitro platform for evaluating drugs and chemicals. The FDA recognizes such in vitro models that provide comparative information of relative toxicity between an FDA approved compound and a new submission or in vitro data that focuses on mechanism. The HuDMOP system allows collection of intestinal absorption data, pharmacokinetic data, safety, and efficacy in a single model and can feature up to 6 organ compartments. Flow between the compartments is controlled through selection of dialysis membrane appropriate for the relevant organ systems, pressures, and membrane areas. The HuDMOP system is also used to generate data to support efficacy claims for botanicals.
Simulated blood consisted of saline with human serum albumin.
Epigallocatechin gallate (EGCG) from the novel composition was used to track its intestinal permeability, its movement into simulated blood and delivery to the liver. EGCG content was measured by LC-MS/MS (FIG. 6).

Fa2N-4 cells = settings: human, 24 h
Procedure: Maximum Tolerated Dose is indicated as the % EtOH where viability as assayed using ATP levels diminished to below 50%.
Samples of botanical-infused alcoholic composition were prepared as follows. The samples were diluted to in deionized water to bring the alcohol concentration down to 8%. […] Intracellular ATP was expressed as % ATP vs. Vehicle Control. Data points represent mean±SEM of N=3 replicates.
The samples were also diluted to 6 and 2% alcohol.

[3] = tested on: NADPH Quinone Dehydrogenase 1 (NQO1); settings: liver cells, 12 and 24 hr post exposure
Excerpt: as §1
(§2) Total RNA from the liver cells was obtained following the 12 and 24 hr time points post exposure to look at specific gene expression (NQO1, HMOX1, GSR) that are part of a group that protect the cell from oxidative stress and inflammation. An increase in fold change >2 is typically considered biologically relevant.
RNA was extracted from liver cells using the RNeasy Mini kit along with Proteinase Kand DNase I digestion to remove proteins and gDNA. DNase I was purchased from Qiagen. Total RNA was quantified using the NanoDrop 2000. The RNA obtained was used to measure the expression of the above target genes by RT-qPCR. 10.10. TaqMan* fast virus 1-step master mix (Thermo Fisher) was used. One-Step RT-qPCR was performed using the QuantStudio 5 PCR Instrument from Thermo Fisher and by following the manufacturer's recommended cycling protocol. All primer/probe sets were obtained from Thermo Fisher.

Heme oxygenase-1 (HMOX1) = settings: liver cells, 12 and 24 hr post exposure
Excerpt: as §1
Total RNA from the liver cells was obtained following the 12 and 24 hr time points post exposure to look at specific gene expression (NQO1, HMOX1, GSR) that are part of a group that protect the cell from oxidative stress and inflammation.
RNA was extracted from liver cells using the RNeasy Mini kit along with Proteinase Kand DNase I digestion to remove proteins and gDNA. DNase I was purchased from Qiagen. Total RNA was quantified using the NanoDrop 2000. The RNA obtained was used to measure the expression of the above target genes by RT-qPCR. […] TaqMan* fast virus 1-step master mix (Thermo Fisher) was used. One-Step RT-qPCR was performed using the QuantStudio 5 PCR Instrument from Thermo Fisher and by following the manufacturer's recommended cycling protocol. All primer/probe sets were obtained from Thermo Fisher.

[4] = tested on: Glutathione Reductase (GSR); settings: liver cells, 12 and 24 hr post exposure
Excerpt: as §1, §2
RNA was extracted from liver cells using the RNeasy Mini kit along with Proteinase Kand DNase I digestion to remove proteins and gDNA. […] Total RNA was quantified using the NanoDrop 2000. The RNA obtained was used to measure the expression of the above target genes by RT-qPCR. […] TaqMan* fast virus 1-step master mix (Thermo Fisher) was used. One-Step RT-qPCR was performed using the QuantStudio 5 PCR Instrument from Thermo Fisher and by following the manufacturer's recommended cycling protocol. All primer/probe sets were obtained from Thermo Fisher.

HepG2 liver cells = assay: Reactive oxygen species (DCFDA/H2DCFDA Cellular ROS Assay Kit) in liver cells; type: cell-based; settings: HepG2, 24 hours; ethanol at 2, 3 and 4%
Procedure: Reactive Oxygen Species were measured using the DCFDA/H2DCFDA Cellular ROS Assay Kit from Abeam.
Liver stress was measured by measuring the amount of reactive oxygen species (ROS) produced after exposure to the alcoholic composition. HepG2 liver cells were plated and grown overnight. […] Then the cells were exposed to the Test articles for 24 hours at 37° C. with 5% CO2. […] Amount of ROS was measured using the DCFDA/H2DCFDA Cellular ROS Assay Kit from Abeam.
Data are expressed as Fold Change vs. Negative Control. Bars represent mean±SEM of three replicate samples.

Compound	EGCG stability in the composition [1]	health of the intestinal tissue (cell viability, MTT) (intestinal tissue)	time EGCG starts to appear in the lower basolateral chamber ([2]; after application of composition batch 1 to intestinal tissue)	time EGCG appears in the liver ([2]; after applying composition batch 1 to the intestinal tissue)	EGCG in perfusate after processing in the liver compartment ([2]; composition batch 1)	EGCG maximum concentration (Cmax) ([2]; composition batch 1, after passing the intestinal membrane)	time of EGCG peak in basolateral chamber ([2]; composition batch 1, amount constant until 24 hours)	Maximum Tolerated Dose (ethanol causing 50% response in % ATP) (Fa2N-4 cells)	NQO1 gene expression [3]	HMOX1 gene expression (Heme oxygenase-1 (HMOX1))	GSR gene expression [4]	increase in ROS, Fold Change vs. Negative Control (HepG2 liver cells)
O=C(O[C@@H]1Cc2c(O)cc(O)cc2O[C@@H]1c1cc(O)c(O)c(O)c1)c1cc(O)c(O)c(O)c1 [EGCG, epigallocatechin gallate]	stable	not affected; also recorded: no cytotoxic effect	2 h	6 h	remains in the perfusate	about 1400 ng/ml	12 h					
CCO [ethanol]		not affected						8%	no increase	induces an increase	does not produce an increase	
CC(C)(C)OO [positive control, Tert-butyl hydroperoxide]												22 fold
